# Experimental data as given in patent US11529436B2, “Engineered three-dimensional skin tissues, arrays thereof, and methods of making the same” (Organovo, Inc., priority 2014, dated 2022).
# Like-named read-outs stand apart in the source and are kept apart here.
# Tests used:
# Assay type in all cases: cell-based, human
# [1] = system: bioprinted full thickness skin tissue; assay: Viability of bioprinted skin tissue by alamar blue assay, skin irritation test
# Description: (§1) Bio-ink was generated by a cellular mixture of 100% primary adult human dermal fibroblasts (HDFa) in 8% gelatin (NOVOGEL 2.0) at a concentration of 100 million cells per milliliter. The cell: gelatin ratio was altered to reduce the cellular density of the dermal sheet to better mimic dermal tissue in native skin. Three-dimensional bio-ink constructs were printed by continuous deposition using the NOVOGEN BIOPRINTER platform in a 4 mm×4 mm×0.5 mm base to create a dermal structure resembling a sheet. […] The transwell printing surface contained a polytetrafluoroethylene (PTFE) membrane coated with equimolar mixture of types I and III collagen (bovine) with pores 3 μm in size. Epidermal cell paste containing a mixture of 100% primary neonatal human epidermal keratinocytes (HEKn) was then printed on top of the dermal bio-ink. Cell paste was measured post print at 87.1% viable by trypan exclusion assay. Cell numbers in the deposited epidermal layer was estimated at 60,000 cells by cell counting on a Cell-O-Meter. Immediately following the print, constructs were placed at 4° C. for 10 minutes. Cold media was then added to the outer well of the transwell in a volume of 3 ml. The media used for subsequent growth and maintenance of the skin tissue was a 50:50 ratio of HDFa: HEKn media. The initial volume added was sufficient to submerge the structure. All subsequent media changes used warmed media (37° C.) added to the outer well of the transwell and not to the inner basket. Media was changed 48 hours later and reduced to a volume of 1.5 ml per well to bring the structure to an air-liquid interface (ALI). Media and subsequently changed 48 hours after that (day 4) at a volume of 1.5 ml. On day 5, media was changed and further reduced to 1 ml per well and subsequently changed daily. On day 10, skin tissues were subject to a skin irritation test method using 1% TRITON X-100. 1% TRITON X-100 is a known irritant and reference chemical currently used in other 3D skin models. Methods were based on OECD guidelines 439 and 431 for applying human skin models to in vitro skin irritation or corrosion, respectively. On day 10, conditioned media was saved (designated time=0) and 1 ml of fresh media was added to the outer well of the transwell. The printed skin tissue was then treated with 20 μl of PBS as a negative control or with 20 μl of 1% TRITON X-100 as a positive control and known irritant. […] IL-1α production (R&D Systems) was analyzed in a colorimetric assays per manufacturer's protocol. Media was analyzed for lactate dehydrogenase as a marker for cytotoxicity. IL-1α production was assessed as a complementary endpoint to classic cytotoxicity testing to improve predictability of irritants. […] Viability was measured as fluorescence in the media by conversion of resazurin to resorufin. […]
# [2] = system: bioprinted full thickness skin tissue; assay: IL-1α production in media of bioprinted skin tissue (colorimetric assay), skin irritation test
# Description: Bio-ink was generated by a cellular mixture of 100% primary adult human dermal fibroblasts (HDFa) in 8% gelatin (NOVOGEL 2.0) at a concentration of 100 million cells per milliliter. The cell: gelatin ratio was altered to reduce the cellular density of the dermal sheet to better mimic dermal tissue in native skin. Three-dimensional bio-ink constructs were printed by continuous deposition using the NOVOGEN BIOPRINTER platform in a 4 mm×4 mm×0.5 mm base to create a dermal structure resembling a sheet. […] The transwell printing surface contained a polytetrafluoroethylene (PTFE) membrane coated with equimolar mixture of types I and III collagen (bovine) with pores 3 μm in size. Epidermal cell paste containing a mixture of 100% primary neonatal human epidermal keratinocytes (HEKn) was then printed on top of the dermal bio-ink. Cell paste was measured post print at 87.1% viable by trypan exclusion assay. Cell numbers in the deposited epidermal layer was estimated at 60,000 cells by cell counting on a Cell-O-Meter. Immediately following the print, constructs were placed at 4° C. for 10 minutes. Cold media was then added to the outer well of the transwell in a volume of 3 ml. The media used for subsequent growth and maintenance of the skin tissue was a 50:50 ratio of HDFa: HEKn media. The initial volume added was sufficient to submerge the structure. All subsequent media changes used warmed media (37° C.) added to the outer well of the transwell and not to the inner basket. Media was changed 48 hours later and reduced to a volume of 1.5 ml per well to bring the structure to an air-liquid interface (ALI). Media and subsequently changed 48 hours after that (day 4) at a volume of 1.5 ml. On day 5, media was changed and further reduced to 1 ml per well and subsequently changed daily. On day 10, skin tissues were subject to a skin irritation test method using 1% TRITON X-100. 1% TRITON X-100 is a known irritant and reference chemical currently used in other 3D skin models. Methods were based on OECD guidelines 439 and 431 for applying human skin models to in vitro skin irritation or corrosion, respectively. On day 10, conditioned media was saved (designated time=0) and 1 ml of fresh media was added to the outer well of the transwell. The printed skin tissue was then treated with 20 μl of PBS as a negative control or with 20 μl of 1% TRITON X-100 as a positive control and known irritant. Test substances were pipetted manually to the apical surface of the tissue. TRITON X-100 was diluted to a 1% aqueous solution in deionized water and sterile filtered through a 20 micron filter before use. […] Media was saved (designated time=1 hour). Samples were then washed extensively by PBS rinsing. […] The media was then changed at 24 hours and at 48 hours post treatment. Total media collected included time points=−48, 0, 1, 24, and 48 hours. IL-1α production (R&D Systems) was analyzed in a colorimetric assays per manufacturer's protocol. Media was analyzed for lactate dehydrogenase as a marker for cytotoxicity. IL-1α production was assessed as a complementary endpoint to classic cytotoxicity testing to improve predictability of irritants. Keratinocytes normally produce and release inflammatory cytokine IL-1α in response to chemical or physical stress. […] Viability was measured as fluorescence in the media by conversion of resazurin to resorufin. […]
# [3] = system: bioprinted full thickness skin tissue; assay: Histological analysis of bioprinted skin tissue after irritant treatment (H&E, CK5/IVL, CK10, collagen 3, PCNA, TUNEL); settings: 1% TRITON X-100, 1 hour exposure
# Description: Bio-ink was generated by a cellular mixture of 100% primary adult human dermal fibroblasts (HDFa) in 8% gelatin (NOVOGEL 2.0) at a concentration of 100 million cells per milliliter. The cell: gelatin ratio was altered to reduce the cellular density of the dermal sheet to better mimic dermal tissue in native skin. Three-dimensional bio-ink constructs were printed by continuous deposition using the NOVOGEN BIOPRINTER platform in a 4 mm×4 mm×0.5 mm base to create a dermal structure resembling a sheet. One tissue construct was printed per transwell in a 6-well plate. The transwell printing surface contained a polytetrafluoroethylene (PTFE) membrane coated with equimolar mixture of types I and III collagen (bovine) with pores 3 μm in size. Epidermal cell paste containing a mixture of 100% primary neonatal human epidermal keratinocytes (HEKn) was then printed on top of the dermal bio-ink. Cell paste was measured post print at 87.1% viable by trypan exclusion assay. Cell numbers in the deposited epidermal layer was estimated at 60,000 cells by cell counting on a Cell-O-Meter. Immediately following the print, constructs were placed at 4° C. for 10 minutes. Cold media was then added to the outer well of the transwell in a volume of 3 ml. The media used for subsequent growth and maintenance of the skin tissue was a 50:50 ratio of HDFa: HEKn media. The initial volume added was sufficient to submerge the structure. All subsequent media changes used warmed media (37° C.) added to the outer well of the transwell and not to the inner basket. Media was changed 48 hours later and reduced to a volume of 1.5 ml per well to bring the structure to an air-liquid interface (ALI). Media and subsequently changed 48 hours after that (day 4) at a volume of 1.5 ml. On day 5, media was changed and further reduced to 1 ml per well and subsequently changed daily. On day 10, skin tissues were subject to a skin irritation test method using 1% TRITON X-100. 1% TRITON X-100 is a known irritant and reference chemical currently used in other 3D skin models. Methods were based on OECD guidelines 439 and 431 for applying human skin models to in vitro skin irritation or corrosion, respectively. On day 10, conditioned media was saved (designated time=0) and 1 ml of fresh media was added to the outer well of the transwell. The printed skin tissue was then treated with 20 μl of PBS as a negative control or with 20 μl of 1% TRITON X-100 as a positive control and known irritant. Test substances were pipetted manually to the apical surface of the tissue. TRITON X-100 was diluted to a 1% aqueous solution in deionized water and sterile filtered through a 20 micron filter before use. Samples were incubated for 30 minutes at 37° C. followed by 30 minutes at room temperature for a total of 60 minutes. Media was saved (designated time=1 hour). Samples were then washed extensively by PBS rinsing. Transwells were then placed in a new 6-well plate with fresh media (1 ml) added to the outer well then placed back into 37° C. overnight. The media was then changed at 24 hours and at 48 hours post treatment. Total media collected included time points=−48, 0, 1, 24, and 48 hours. IL-1α production (R&D Systems) was analyzed in a colorimetric assays per manufacturer's protocol. Media was analyzed for lactate dehydrogenase as a marker for cytotoxicity. IL-1α production was assessed as a complementary endpoint to classic cytotoxicity testing to improve predictability of irritants. Keratinocytes normally produce and release inflammatory cytokine IL-1α in response to chemical or physical stress. At 48 hours post treatment (day 12), tissues were either lysed for RNA extraction and subsequent qPCR analysis, or tested for viability by alamar blue assay then rinsed in PBS and fixed with 2% PFA for histological analysis. Alamar blue (Life Technologies) was added per manufacturer's instructions to media and incubated with tissue constructs (1 ml) at 37° C. for 3 hours. […]
# [4] = system: bioprinted full thickness skin tissue; assay: Gene expression (qPCR) analysis of bioprinted skin tissue after irritant treatment; settings: 1% TRITON X-100, 1 hour exposure
# Description: Bio-ink was generated by a cellular mixture of 100% primary adult human dermal fibroblasts (HDFa) in 8% gelatin (NOVOGEL 2.0) at a concentration of 100 million cells per milliliter. The cell: gelatin ratio was altered to reduce the cellular density of the dermal sheet to better mimic dermal tissue in native skin. Three-dimensional bio-ink constructs were printed by continuous deposition using the NOVOGEN BIOPRINTER platform in a 4 mm×4 mm×0.5 mm base to create a dermal structure resembling a sheet. One tissue construct was printed per transwell in a 6-well plate. The transwell printing surface contained a polytetrafluoroethylene (PTFE) membrane coated with equimolar mixture of types I and III collagen (bovine) with pores 3 μm in size. Epidermal cell paste containing a mixture of 100% primary neonatal human epidermal keratinocytes (HEKn) was then printed on top of the dermal bio-ink. Cell paste was measured post print at 87.1% viable by trypan exclusion assay. Cell numbers in the deposited epidermal layer was estimated at 60,000 cells by cell counting on a Cell-O-Meter. Immediately following the print, constructs were placed at 4° C. for 10 minutes. Cold media was then added to the outer well of the transwell in a volume of 3 ml. The media used for subsequent growth and maintenance of the skin tissue was a 50:50 ratio of HDFa: HEKn media. The initial volume added was sufficient to submerge the structure. All subsequent media changes used warmed media (37° C.) added to the outer well of the transwell and not to the inner basket. Media was changed 48 hours later and reduced to a volume of 1.5 ml per well to bring the structure to an air-liquid interface (ALI). Media and subsequently changed 48 hours after that (day 4) at a volume of 1.5 ml. On day 5, media was changed and further reduced to 1 ml per well and subsequently changed daily. On day 10, skin tissues were subject to a skin irritation test method using 1% TRITON X-100. 1% TRITON X-100 is a known irritant and reference chemical currently used in other 3D skin models. Methods were based on OECD guidelines 439 and 431 for applying human skin models to in vitro skin irritation or corrosion, respectively. On day 10, conditioned media was saved (designated time=0) and 1 ml of fresh media was added to the outer well of the transwell. The printed skin tissue was then treated with 20 μl of PBS as a negative control or with 20 μl of 1% TRITON X-100 as a positive control and known irritant. […] IL-1α production (R&D Systems) was analyzed in a colorimetric assays per manufacturer's protocol. Media was analyzed for lactate dehydrogenase as a marker for cytotoxicity. IL-1α production was assessed as a complementary endpoint to classic cytotoxicity testing to improve predictability of irritants. […]
# [5] = system: bioprinted full thickness skin tissue; assay: Lactate dehydrogenase (LDH) activity in media of bioprinted skin tissue, skin irritation test
# Description: as §1, with “ml.” for “ml. On day 5, media was changed and further reduced to 1 ml per well and subsequently changed daily. On day 10, skin tissues were subject to a skin irritation test method using 1% TRITON X-100. 1% TRITON X-100 is a known irritant and reference chemical currently used in other 3D skin models. Methods were based on OECD guidelines 439 and 431 for applying human skin models to in vitro skin irritation or corrosion, respectively. On day 10, conditioned media was saved (designated time=0) and 1 ml of fresh media was added to the outer well of the transwell. The printed skin tissue was then treated with 20 μl of PBS as a negative control or with 20 μl of 1% TRITON X-100 as a positive control and known irritant.”
# [6] = 1% TRITON X-100, 1 hour exposure, 48 hours post treatment
# [7] = 48 hours post treatment (day 12)
compound,measurement,setting,value
TRITON X-100,reduction in viability as compared to the PBS control (alamar blue),[1]; [6],80%
same,viability compared to the PBS control (alamar blue assay),"[1]; 15 minute exposure, 5% SDS or 1% TRITON X-100, 24 well plate format, 42 hours post treatment",68.75%
same,IL-1α levels,"[2]; 1% TRITON X-100, 1 hour exposure, 24 hours post treatment",remained high
same,IL-1α levels,[2]; [6],returned to baseline
same,IL-1α activity in comparison to PBS control,"[2]; 1% TRITON X-100, 1 hour exposure, greatest difference 1 hour post treatment",increased
same,IL-1α production,"[2]; 15 minute exposure, 5% SDS or 1% TRITON X-100, 24 well plate format",induced
same,irritancy to bioprinted skin suggested by histology,[3],irritant
same,CK5 positive basal keratinocyte layer,[3]; [7],fragmented
same,Collagen 3 staining compared to the PBS control,[3]; [7],reduction in dermal fibroblast function
same,H&E histology,[3]; [7],separation of the epidermal and dermal layers
same,macroscopic appearance of treated tissues,[3]; [7],appeared similar to PBS control tissues macroscopically
same,proliferation by PCNA staining,"[3]; dermal fibroblasts and basal layer, day 12",reduction in proliferation
same,apoptosis by TUNEL staining,"[3]; dermal layer, day 12",increase in apoptosis
same,CK1 and CK10 gene expression,[4]; 48 hours post exposure,reduced
same,"collagen production of types 1, 3, and 4 collagen (gene expression)",[4]; 48 hours post exposure,reduced
same,expression of both epidermal and dermal markers,[4]; 48 hours post exposure,dramatically reduces
same,IL1α gene expression increase in comparison to the PBS control,[4]; 48 hours post treatment,about 3 fold
same,induction in LDH activity compared to PBS control,"[5]; 1% TRITON X-100, 1 hour exposure, 6-well format, at 1 hour, 24 hours and 48 hours post treatment",roughly 2 fold
same,LDH activity higher than PBS,"[5]; 15 minute exposure, 5% SDS or 1% TRITON X-100, 24 well plate format, 42 hours post exposure",about 1.4 fold
CCCCCCCCCCCCOS(=O)(=O)[O-].[Na+] [SDS],"irritancy under these testing conditions, 5% SDS versus 1% TRITON X-100",[1],much stronger irritant
same,viability compared to the PBS control (alamar blue assay),[1],2.45%
same,IL-1α production,[2],much stronger response
same,LDH activity higher than PBS,[5],about 1.7 fold
